# Laboratory results reported in ChEMBL document CHEMBL4049425, “Fragment-Based, Structure-Enabled Discovery of Novel Pyridones and Pyridone Macrocycles as Potent Bromodomain and Extra-Terminal Domain (BET) Family Bromodomain Inhibitors” (J Med Chem, 2017).
# System: not listed separately
# Assay: Fraction unbound in rat plasma
# Type: ADME, cell-free
# Details: not given
row,SMILES,fraction unbound
1,Cn1cc2c(cc1=O)OCCCCc1cc(Cl)ccc1Oc1ncc(CS(C)(=O)=O)cc1-2,0.24
2,CCS(=O)(=O)Nc1cnc2c(c1)-c1cn(C)c(=O)cc1OCCCCc1cc(Cl)ccc1O2,0.12
3,CCS(=O)(=O)Nc1ccc2c(c1)-c1cn(C)c(=O)cc1OCCCCc1cc(Cl)ccc1O2,0.02

# System: Liver
# Assay: Unbound intrinsic clearance in human liver microsomes
# Type: ADME, microsome
# Details: not given
row,SMILES,CL free
1,CCS(=O)(=O)Nc1ccc2c(c1)-c1cn(C)c(=O)cc1OCCCCc1cc(F)cc(F)c1O2,67 mL/min/kg
2,Cn1cc2c(cc1=O)OCCCCc1cc(Cl)ccc1Oc1ncc(CS(C)(=O)=O)cc1-2,56.7 mL/min/kg
3,CCS(=O)(=O)Nc1cnc2c(c1)-c1cn(C)c(=O)cc1OCCCCc1cc(Cl)ccc1O2,63.3 mL/min/kg
4,CCS(=O)(=O)Nc1ccc2c(c1)-c1cn(C)c(=O)cc1OCCCCc1cc(Cl)ccc1O2,< 217 mL/min/kg

# System: Liver
# Assay: Unbound intrinsic clearance in rat liver microsomes
# Type: ADME, microsome
# Details: not given
row,SMILES,CL free
1,CCS(=O)(=O)Nc1ccc2c(c1)-c1cn(C)c(=O)cc1OCCCCc1cc(F)cc(F)c1O2,317 mL/min/kg
2,Cn1cc2c(cc1=O)OCCCCc1cc(Cl)ccc1Oc1ncc(CS(C)(=O)=O)cc1-2,107 mL/min/kg
3,CCS(=O)(=O)Nc1cnc2c(c1)-c1cn(C)c(=O)cc1OCCCCc1cc(Cl)ccc1O2,153 mL/min/kg
4,CCS(=O)(=O)Nc1ccc2c(c1)-c1cn(C)c(=O)cc1OCCCCc1cc(Cl)ccc1O2,433 mL/min/kg

# Molecular target: T1, Bromodomain-containing protein 4 (Homo sapiens, UniProt O60885)
# Assay: Inhibition of human N-terminal His6-tagged BRD4 BD1-BD2 (57 to 550 residues) expressed in EScherichia coli BL21(DE3) after 1 hr by Alexa-647-conjugated probe based TR-FRET assay
# Details: not given
row,SMILES,Ki
1,Cn1cc2c(cc1=O)OCCCCc1cc(Cl)ccc1Oc1ncc(CS(C)(=O)=O)cc1-2,11 nM
2,CCS(=O)(=O)Nc1cnc2c(c1)-c1cn(C)c(=O)cc1OCCCCc1cc(Cl)ccc1O2,3.4 nM
3,CCS(=O)(=O)Nc1ccc2c(c1)-c1cn(C)c(=O)cc1OCCCCc1cc(Cl)ccc1O2,1.5 nM

# System: Rattus norvegicus
# Assay: Fraction absorbed in portal vein of rat at 1 mg/kg, iv or 1 mg/kg, po
# Type: ADME, organism-based
# Details: in vivo
row,SMILES,FaFg
1,Cn1cc2c(cc1=O)OCCCCc1cc(Cl)ccc1Oc1ncc(CS(C)(=O)=O)cc1-2,0.42
2,CCS(=O)(=O)Nc1ccc2c(c1)-c1cn(C)c(=O)cc1OCCCCc1cc(Cl)ccc1O2,0.44

# System: not listed separately
# Assay: Lipophilicity, log D of the compound
# Type: physicochemical
# Details: octanol/water
row,SMILES,logD
1,CCS(=O)(=O)Nc1ccc2c(c1)-c1cn(C)c(=O)cc1OCCCCc1cc(F)cc(F)c1O2,2.8 to 4.3
2,Cn1cc2c(cc1=O)OCCCCc1cc(Cl)ccc1Oc1ncc(CS(C)(=O)=O)cc1-2,2.8 to 4.3
3,CCS(=O)(=O)Nc1cnc2c(c1)-c1cn(C)c(=O)cc1OCCCCc1cc(Cl)ccc1O2,2.8 to 4.3
4,CCS(=O)(=O)Nc1ccc2c(c1)-c1cn(C)c(=O)cc1OCCCCc1cc(Cl)ccc1O2,2.8 to 4.3

# System: Mus musculus
# Assay: Unbound AUC in mouse at 1 mg/kg, po
# Type: ADME, organism-based
# Details: in vivo
row,SMILES,fAUC
1,CCS(=O)(=O)Nc1ccc2c(c1)-c1cn(C)c(=O)cc1OCCCCc1cc(F)cc(F)c1O2,8 ng·h/mL
2,Cn1cc2c(cc1=O)OCCCCc1cc(Cl)ccc1Oc1ncc(CS(C)(=O)=O)cc1-2,85 ng·h/mL
3,CCS(=O)(=O)Nc1cnc2c(c1)-c1cn(C)c(=O)cc1OCCCCc1cc(Cl)ccc1O2,120 ng·h/mL
4,CCS(=O)(=O)Nc1ccc2c(c1)-c1cn(C)c(=O)cc1OCCCCc1cc(Cl)ccc1O2,16 ng·h/mL

# System: not listed separately
# Assay: Oral bioavailability in mouse at 1 mg/kg
# Type: ADME, organism-based
# Details: in vivo
row,SMILES,bioavailability
1,Cn1cc2c(cc1=O)OCCCCc1cc(Cl)ccc1Oc1ncc(CS(C)(=O)=O)cc1-2,45%
2,CCS(=O)(=O)Nc1cnc2c(c1)-c1cn(C)c(=O)cc1OCCCCc1cc(Cl)ccc1O2,70%
3,CCS(=O)(=O)Nc1ccc2c(c1)-c1cn(C)c(=O)cc1OCCCCc1cc(Cl)ccc1O2,39%

# System: Rattus norvegicus
# Assay: Unbound clearance in rat at 1 mg/kg, iv or 1 mg/kg, po
# Type: ADME, organism-based
# Details: in vivo
row,SMILES,CL free
1,Cn1cc2c(cc1=O)OCCCCc1cc(Cl)ccc1Oc1ncc(CS(C)(=O)=O)cc1-2,142 mL/min/kg
2,CCS(=O)(=O)Nc1cnc2c(c1)-c1cn(C)c(=O)cc1OCCCCc1cc(Cl)ccc1O2,833 mL/min/kg
3,CCS(=O)(=O)Nc1ccc2c(c1)-c1cn(C)c(=O)cc1OCCCCc1cc(Cl)ccc1O2,2330 mL/min/kg

# System: Mus musculus
# Assay: Fraction absorbed in portal vein of mouse at 1 mg/kg, iv or 1 mg/kg, po
# Type: ADME, organism-based
# Details: in vivo
row,SMILES,FaFg
1,Cn1cc2c(cc1=O)OCCCCc1cc(Cl)ccc1Oc1ncc(CS(C)(=O)=O)cc1-2,0.51
2,CCS(=O)(=O)Nc1cnc2c(c1)-c1cn(C)c(=O)cc1OCCCCc1cc(Cl)ccc1O2,0.76
3,CCS(=O)(=O)Nc1ccc2c(c1)-c1cn(C)c(=O)cc1OCCCCc1cc(Cl)ccc1O2,0.41

# Molecular target: T1, Bromodomain-containing protein 4
# Assay: Inhibition of BRD4 in human NCI-H1299 cells after 24 hrs by Bright-Glo luciferase reporter gene assay
# Type: cell-based
# Details: not given
row,SMILES,EC50
1,Cn1cc2c(cc1=O)OCCCCc1cc(Cl)ccc1Oc1ncc(CS(C)(=O)=O)cc1-2,24 nM
2,CCS(=O)(=O)Nc1cnc2c(c1)-c1cn(C)c(=O)cc1OCCCCc1cc(Cl)ccc1O2,9.3 nM
3,CCS(=O)(=O)Nc1ccc2c(c1)-c1cn(C)c(=O)cc1OCCCCc1cc(Cl)ccc1O2,5.1 nM

# System: Rattus norvegicus
# Assay: Unbound AUC in rat at 1 mg/kg, po
# Type: ADME, organism-based
# Details: in vivo
row,SMILES,fAUC
1,Cn1cc2c(cc1=O)OCCCCc1cc(Cl)ccc1Oc1ncc(CS(C)(=O)=O)cc1-2,2 ng·h/mL
2,CCS(=O)(=O)Nc1cnc2c(c1)-c1cn(C)c(=O)cc1OCCCCc1cc(Cl)ccc1O2,5 ng·h/mL
3,CCS(=O)(=O)Nc1ccc2c(c1)-c1cn(C)c(=O)cc1OCCCCc1cc(Cl)ccc1O2,1 ng·h/mL

# System: Mus musculus
# Assay: Unbound clearance in mouse at 1 mg/kg, iv or 1 mg/kg, po
# Type: ADME, organism-based
# Details: in vivo
row,SMILES,CL free
1,Cn1cc2c(cc1=O)OCCCCc1cc(Cl)ccc1Oc1ncc(CS(C)(=O)=O)cc1-2,88.3 mL/min/kg
2,CCS(=O)(=O)Nc1cnc2c(c1)-c1cn(C)c(=O)cc1OCCCCc1cc(Cl)ccc1O2,102 mL/min/kg
3,CCS(=O)(=O)Nc1ccc2c(c1)-c1cn(C)c(=O)cc1OCCCCc1cc(Cl)ccc1O2,417 mL/min/kg

# System: Liver
# Assay: Unbound intrinsic clearance in mouse liver microsomes
# Type: ADME, microsome
# Details: not given
row,SMILES,CL free
1,CCS(=O)(=O)Nc1ccc2c(c1)-c1cn(C)c(=O)cc1OCCCCc1cc(F)cc(F)c1O2,700 mL/min/kg
2,Cn1cc2c(cc1=O)OCCCCc1cc(Cl)ccc1Oc1ncc(CS(C)(=O)=O)cc1-2,158 mL/min/kg
3,CCS(=O)(=O)Nc1cnc2c(c1)-c1cn(C)c(=O)cc1OCCCCc1cc(Cl)ccc1O2,1030 mL/min/kg
4,CCS(=O)(=O)Nc1ccc2c(c1)-c1cn(C)c(=O)cc1OCCCCc1cc(Cl)ccc1O2,2330 mL/min/kg

# System: not listed separately
# Assay: Oral bioavailability in rat at 1 mg/kg
# Type: ADME, organism-based
# Details: in vivo
row,SMILES,bioavailability
1,Cn1cc2c(cc1=O)OCCCCc1cc(Cl)ccc1Oc1ncc(CS(C)(=O)=O)cc1-2,2.8%
2,CCS(=O)(=O)Nc1cnc2c(c1)-c1cn(C)c(=O)cc1OCCCCc1cc(Cl)ccc1O2,19%
3,CCS(=O)(=O)Nc1ccc2c(c1)-c1cn(C)c(=O)cc1OCCCCc1cc(Cl)ccc1O2,16%

# System: MX1
# Assay: Antiproliferative activity against human MX1 cells after 72 hrs by Cell Titer Glo assay
# Type: functional, cell-based
# Details: MX1, 72 h
row,SMILES,EC50
1,Cn1cc2c(cc1=O)OCCCCc1cc(Cl)ccc1Oc1ncc(CS(C)(=O)=O)cc1-2,24 nM
2,CCS(=O)(=O)Nc1cnc2c(c1)-c1cn(C)c(=O)cc1OCCCCc1cc(Cl)ccc1O2,5.7 nM
3,CCS(=O)(=O)Nc1ccc2c(c1)-c1cn(C)c(=O)cc1OCCCCc1cc(Cl)ccc1O2,5.7 nM

# System: not listed separately
# Assay: Fraction unbound in mouse plasma at 1 uM after 4 hrs by LC-MS/MS analysis
# Type: ADME, cell-free
# Details: not given
row,SMILES,"fraction unbound at 4 h, 1 µM"
1,CCS(=O)(=O)Nc1ccc2c(c1)-c1cn(C)c(=O)cc1OCCCCc1cc(F)cc(F)c1O2,0.03
2,Cn1cc2c(cc1=O)OCCCCc1cc(Cl)ccc1Oc1ncc(CS(C)(=O)=O)cc1-2,0.12
3,CCS(=O)(=O)Nc1cnc2c(c1)-c1cn(C)c(=O)cc1OCCCCc1cc(Cl)ccc1O2,0.06
4,CCS(=O)(=O)Nc1ccc2c(c1)-c1cn(C)c(=O)cc1OCCCCc1cc(Cl)ccc1O2,0.01

# System: not listed separately
# Assay: Permeability of the compound by PAMPA
# Type: physicochemical
# Details: read-out: permeability
row,SMILES,Papp
1,CCS(=O)(=O)Nc1ccc2c(c1)-c1cn(C)c(=O)cc1OCCCCc1cc(F)cc(F)c1O2,6.8 ×10⁻⁶ cm/s
2,Cn1cc2c(cc1=O)OCCCCc1cc(Cl)ccc1Oc1ncc(CS(C)(=O)=O)cc1-2,12 ×10⁻⁶ cm/s
3,CCS(=O)(=O)Nc1cnc2c(c1)-c1cn(C)c(=O)cc1OCCCCc1cc(Cl)ccc1O2,7.2 ×10⁻⁶ cm/s
4,CCS(=O)(=O)Nc1ccc2c(c1)-c1cn(C)c(=O)cc1OCCCCc1cc(Cl)ccc1O2,2.2 ×10⁻⁶ cm/s
